# Experimental data: patent US9409975B2, “Antibody binding microbial heparin binding motif to retard or prevent microbial biofilm formation on implanted medical devices” (priority 2012, dated 2016)
# Experiments:
# [1] = tested on: Candida albicans BWP17 wt; assay: Percent hyphae by flow cytometry with or without heparin; assay type: cell-based; conditions: 100 units/ml heparin; YPD 30° C. or RPMI-HEPES 37° C.
# Description: Flow cytometry was performed by inoculating a single colony of BWP17 wt into 3 ml YPD medium and incubating overnight at 30° C. with shaking at 225 rpm. […] One ml aliquots of each mixture were removed, pelleted (7,000 rpm for 3 min), washed twice with PBS, and reconstituted in 1 ml PBS. Flow cytometry analysis was performed using the Imagestream^X flow cytometer (Amnis, Seattle Wash.) equipped with a 405 nm, 488 nm, 653 nm, laser and multi-mag function. The 40× magnification, 10 mm/sec flow rate, and 488 nm laser were used to collect SSC and Brightfield parameters. The flow cell allows particles up to 100 μm wide (height unlimited) to be collected in the instrument. INSPIRE (v.6.0) software was used to acquire events. Software analysis using IDEAS (v5.0) identified percent hyphae using aspect ratio, height and width features using the side scatter (Channel 6) and brightfield (Channel 1) parameters. Objects were selected within each file and tagged to use as identification of truth sets within the population.
# [2] = tested on: Candida albicans BWP17 wt; assay: Filipin and calcofluor white staining microscopy with or without heparin; assay type: cell-based; conditions: 100 units/ml heparin, heparin-treated vs untreated organisms
# Description: Heparin effect on Candida albicans growth and morphology was determined. A single colony of BWP17 wt was inoculated into 3 ml YPD medium and incubated overnight at 30° C. with shaking at 225 rpm. Overnight cultures were diluted to an OD600 of 0.1 in 5 ml of YPD (yeast) or RPMI-HEPES (hyphae) in a 50 ml conical polypropylene tube and incubated in the presence or absence of 100 units/ml preservative-free pharmaceutical heparin at 30° C. for six hours. Cells (1 ml) were fixed with an equal volume of 4% formaldehyde in FACS buffer at 4° C. for one hour, then pelleted (7,000 rpm for 3 minutes) and washed with PBS. After reconstitution in 0.5 ml PBS, filipin (50 mg/ml stock solution in DMSO) was added to a final concentration of 100 μg/ml and incubated with cells at room temperature for five minutes. Cells were pelleted, washed with PBS and mounted on a slide using Fluoromount G. For calcofluor white staining, after six hours incubation, 1 μl of 1 mg/ml stock solution of calcofluor white in 0.1 N NaOH was added to 100 μl cells to a final calcofluor white concentration of 10 μg/ml.
# Microscopy was performed by imaging filipin, PKH26, DAPI, and heparin-Alexa Fluor 488 on a Nikon Ti-E inverted microscope with a 100×CFI APO oil NA 1.49 objective. Filipin was excited with a Prior Lumen 200 metal halide light source set at 10% light output. […]
# C. albicans = assay: Histatin killing assay after heparin preincubation; assay type: cell-based, Candida albicans; conditions: 500 units/ml heparin, then histatin 5 (15 μM)
# Description: In order to evaluate the consequences of removal of Ssa1 and Ssa2 (Table 4), both targets of histatin, a histatin killing assay was performed as follows. C. albicans strains were grown to late log phase overnight in YPD. A single colony was suspended in 1 ml YPD, diluted 1:500 into 10 ml YPD, and incubated overnight at 30° C. and 225 rpm to OD600 1.0. Yeast cells were washed twice in PBS and 2×10^4 cells suspended in 250 μl RPMI+10 mM HEPES, pH 7.0, with or without 500 units/ml heparin (Sigma). The cells were incubated at 37° C. for one hour with shaking, washed twice with 10 mM phosphate buffer, pH 7.4, and suspended in 20 μl phosphate buffer. Histatin 5 (final concentration 15 μM; Peptides International) or 10 mM phosphate buffer was added to the preincubated cells (total volume 40 μl) and incubated further at 37° C. for 90 minutes with shaking. YPD (360 ul) was added to each tube, a 40 μl aliquot spread onto YPD plates, and colonies counted after two days. The effect of heparin treatment was determined by the formula % change=[(cfu+heparin)−(cfu−heparin)]/(cfu+heparin).
substance,measurement,setting,value
heparin,percent hyphae by flow cytometry,[1],did not differ
same,integrity of membrane sterols (filipin) and location of septin rings (calcofluor white),[2],identical
same,decrease in histatin-mediated killing,C. albicans; INT1 double disruptant,1.5%
same,decrease in histatin-mediated killing,C. albicans; wild type C. albicans,25%
